# The source made the active and inactive calls.
# Legend:
# [1] = target: Megakaryocyte-associated tyrosine-protein kinase (Homo sapiens, UniProt P42679); type: functional;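 further: affinity measured as one member of a kinase panel (Navigating the Kinome) against MATK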
# [2] = target: Cyclin-dependent kinase 5 (Homo sapiens, UniProt Q00535); type: functional;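 further: CDK5 measured as one member of a kinase profiling panel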
# [3] = target: Serine/threonine-protein kinase Nek2 (Homo sapiens, UniProt P51955); type: functional
# [4] = target: High affinity nerve growth factor receptor (Homo sapiens, UniProt P04629); type: functional;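 further: NTRK1 tested as one member of a kinome-wide profiling panel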
# [5] = target: Mitogen-activated protein kinase 1 (Homo sapiens, UniProt P28482); type: functional
# [6] = target: Serine/threonine-protein kinase D2 (Homo sapiens, UniProt Q9BZL6); type: functional;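 further: measured against PRKD2 as one member of a kinome-wide kinase profiling panel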
# [7] = target: Serine/threonine-protein kinase Nek4 (Homo sapiens, UniProt P51957); type: functional
# [8] = target: Glycogen synthase kinase-3 beta (Homo sapiens, UniProt P49841); type: functional;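 further: value comes from a broad kinome profiling panel, with GSK3B as the panel member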
# [9] = target: Tyrosine-protein kinase Fyn (Homo sapiens, UniProt P06241); type: functional
# [10] = target: Serine/threonine-protein kinase Chk1 (Homo sapiens, UniProt O14757); type: functional;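 further: measured as one member of a kinome-wide kinase profiling panel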
# [11] = target: Testis-specific serine/threonine-protein kinase 1 (Homo sapiens, UniProt Q9BXA7); type: functional
# [12] = target: Receptor tyrosine-protein kinase erbB-4 (Homo sapiens, UniProt Q15303); type: functional;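 further: ERBB4 member of a kinome-wide kinase profiling panel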
# [13] = target: Ribosomal protein S6 kinase alpha-5 (Homo sapiens, UniProt O75582); type: functional
# [14] = target: Ribosomal protein S6 kinase alpha-3 (Homo sapiens, UniProt P51812); type: functional;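 further: measured within a kinome-wide profiling panel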
# [15] = target: Mitogen-activated protein kinase 13 (Homo sapiens, UniProt O15264); type: functional
# [16] = target: ALK tyrosine kinase receptor (Homo sapiens, UniProt Q9UM73); type: functional;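 further: ALK tested as one member of a kinase panel screen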
# [17] = target: BDNF/NT-3 growth factors receptor (Homo sapiens, UniProt Q16620); type: functional;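 further: NTRK2 measured as one member of a broad kinome-wide kinase profiling panel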
# [18] = target: 5'-AMP-activated protein kinase catalytic subunit alpha-1 (Homo sapiens, UniProt Q13131); type: functional
# [19] = target: Eukaryotic translation initiation factor 4E (Mus musculus, UniProt P63073); experiment: blockers of eIF4G binding by eIF4E – biochemical, TR-FRET, dose response (AID 855); type: functional;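 further: potency for disrupting eIF4E binding to eIF4GI seen as loss of FRET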
# [20] = target: T1, Carboxy-terminal domain RNA polymerase II polypeptide A small phosphatase 1 (Homo sapiens, UniProt Q9GZU7); experiment: CTDSP1 inhibitors, concentration-response, biochemical, absorbance readout, ultra-high-throughput screen actives (AID 540297); type: functional
# T1 sequence (Q9GZU7 whole entry): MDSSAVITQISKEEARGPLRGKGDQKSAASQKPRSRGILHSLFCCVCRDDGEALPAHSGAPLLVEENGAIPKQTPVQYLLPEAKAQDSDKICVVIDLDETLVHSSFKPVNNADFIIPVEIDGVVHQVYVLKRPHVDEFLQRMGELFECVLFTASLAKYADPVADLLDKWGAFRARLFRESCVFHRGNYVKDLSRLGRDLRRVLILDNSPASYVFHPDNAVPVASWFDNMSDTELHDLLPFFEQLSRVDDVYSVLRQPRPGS
# Hexokinase HKDC1 = target: T2, Hexokinase HKDC1 (Homo sapiens, UniProt Q2TB90); experiment: analog inhibition of human HKDC1 activity – biochemical, set 2, SAR follow-up (AID 588355); type: functional
# T2 sequence (Q2TB90 whole entry): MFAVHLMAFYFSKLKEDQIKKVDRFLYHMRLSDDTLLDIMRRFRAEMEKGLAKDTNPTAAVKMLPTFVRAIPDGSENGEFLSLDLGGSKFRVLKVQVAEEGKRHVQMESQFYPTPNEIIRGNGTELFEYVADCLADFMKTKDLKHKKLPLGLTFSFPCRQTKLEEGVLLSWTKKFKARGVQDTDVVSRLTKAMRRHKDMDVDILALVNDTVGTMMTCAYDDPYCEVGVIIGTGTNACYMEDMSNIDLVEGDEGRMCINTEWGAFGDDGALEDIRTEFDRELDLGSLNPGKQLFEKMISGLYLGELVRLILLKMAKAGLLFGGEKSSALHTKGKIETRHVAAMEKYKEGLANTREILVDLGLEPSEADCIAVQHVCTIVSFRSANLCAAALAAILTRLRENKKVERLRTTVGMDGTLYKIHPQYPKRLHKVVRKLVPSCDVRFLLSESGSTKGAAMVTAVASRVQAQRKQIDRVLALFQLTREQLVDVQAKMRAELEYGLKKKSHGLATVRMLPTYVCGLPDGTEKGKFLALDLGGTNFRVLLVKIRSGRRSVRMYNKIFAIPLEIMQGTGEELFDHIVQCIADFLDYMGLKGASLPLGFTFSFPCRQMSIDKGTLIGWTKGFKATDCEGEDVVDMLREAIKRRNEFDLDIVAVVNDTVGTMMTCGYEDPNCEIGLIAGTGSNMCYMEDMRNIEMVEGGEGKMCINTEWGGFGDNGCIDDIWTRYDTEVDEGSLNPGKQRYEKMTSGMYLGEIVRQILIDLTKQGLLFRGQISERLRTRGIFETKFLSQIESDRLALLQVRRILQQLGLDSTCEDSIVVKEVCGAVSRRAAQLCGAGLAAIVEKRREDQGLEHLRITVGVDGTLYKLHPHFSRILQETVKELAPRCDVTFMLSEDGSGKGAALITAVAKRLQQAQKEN
# [21] = target: T3, Sentrin-specific protease 8 (Homo sapiens, UniProt Q96LD8); experiment: inhibition of human SENP8 cleavage activity – biochemical, luminescence, SAR follow-up (AID 504501); type: functional
# T3 sequence (Q96LD8 whole entry): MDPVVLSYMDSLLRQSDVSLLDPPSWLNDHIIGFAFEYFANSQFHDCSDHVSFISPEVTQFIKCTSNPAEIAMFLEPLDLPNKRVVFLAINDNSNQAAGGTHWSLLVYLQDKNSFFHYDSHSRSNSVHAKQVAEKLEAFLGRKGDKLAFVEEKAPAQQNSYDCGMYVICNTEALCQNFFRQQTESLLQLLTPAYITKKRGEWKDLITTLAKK
# [22] = target: Heat shock protein HSP 90-alpha (Homo sapiens, UniProt P07900); type: functional, organism-based
# Exodeoxyribonuclease V = Exodeoxyribonuclease V (Escherichia coli (strain K12), UniProt P04993+P07648+P08394); experiment: RecBCD inhibition via phage-restricted bacterial growth – absorbance, V66 E. coli, mutant T4 phage, counter-screen for AddAB inhibitor project, dose response (AID 492957); type: functional, cell-based, Escherichia coli str. K-12 substr. MG1655
# Chain of Cyclin-dependent kinase 5 (Q00535 whole entry): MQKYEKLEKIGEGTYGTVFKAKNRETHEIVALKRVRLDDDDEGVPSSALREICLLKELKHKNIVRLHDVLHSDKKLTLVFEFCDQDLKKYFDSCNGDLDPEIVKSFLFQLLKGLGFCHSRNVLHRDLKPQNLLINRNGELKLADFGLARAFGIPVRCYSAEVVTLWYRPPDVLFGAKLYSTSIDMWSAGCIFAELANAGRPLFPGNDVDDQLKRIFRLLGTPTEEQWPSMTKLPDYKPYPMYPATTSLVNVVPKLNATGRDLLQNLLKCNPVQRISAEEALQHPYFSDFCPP
# Chain of Mitogen-activated protein kinase 1 (P28482 whole entry): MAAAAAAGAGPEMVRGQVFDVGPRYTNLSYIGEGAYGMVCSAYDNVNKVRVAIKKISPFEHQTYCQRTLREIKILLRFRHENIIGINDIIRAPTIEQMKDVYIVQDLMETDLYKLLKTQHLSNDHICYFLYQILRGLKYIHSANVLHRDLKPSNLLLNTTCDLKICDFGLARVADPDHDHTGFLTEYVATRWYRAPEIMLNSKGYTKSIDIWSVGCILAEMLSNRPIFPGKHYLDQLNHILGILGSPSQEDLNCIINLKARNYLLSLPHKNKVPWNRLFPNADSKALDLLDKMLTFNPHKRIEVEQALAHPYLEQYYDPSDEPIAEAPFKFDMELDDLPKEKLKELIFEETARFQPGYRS
# Chain of Serine/threonine-protein kinase Nek2 (P51955 whole entry): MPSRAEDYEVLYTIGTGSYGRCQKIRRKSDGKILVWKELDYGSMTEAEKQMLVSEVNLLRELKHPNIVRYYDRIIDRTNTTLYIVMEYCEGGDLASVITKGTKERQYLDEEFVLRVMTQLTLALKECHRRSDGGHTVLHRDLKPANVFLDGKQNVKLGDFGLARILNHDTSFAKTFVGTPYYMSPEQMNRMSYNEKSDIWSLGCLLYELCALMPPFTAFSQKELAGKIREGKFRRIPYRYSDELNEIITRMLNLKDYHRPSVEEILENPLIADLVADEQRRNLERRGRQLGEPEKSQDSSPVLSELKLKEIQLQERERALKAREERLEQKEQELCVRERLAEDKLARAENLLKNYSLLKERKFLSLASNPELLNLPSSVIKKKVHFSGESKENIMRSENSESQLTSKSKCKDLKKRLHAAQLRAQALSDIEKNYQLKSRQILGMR
# Chain of Ribosomal protein S6 kinase alpha-5 (O75582 whole entry): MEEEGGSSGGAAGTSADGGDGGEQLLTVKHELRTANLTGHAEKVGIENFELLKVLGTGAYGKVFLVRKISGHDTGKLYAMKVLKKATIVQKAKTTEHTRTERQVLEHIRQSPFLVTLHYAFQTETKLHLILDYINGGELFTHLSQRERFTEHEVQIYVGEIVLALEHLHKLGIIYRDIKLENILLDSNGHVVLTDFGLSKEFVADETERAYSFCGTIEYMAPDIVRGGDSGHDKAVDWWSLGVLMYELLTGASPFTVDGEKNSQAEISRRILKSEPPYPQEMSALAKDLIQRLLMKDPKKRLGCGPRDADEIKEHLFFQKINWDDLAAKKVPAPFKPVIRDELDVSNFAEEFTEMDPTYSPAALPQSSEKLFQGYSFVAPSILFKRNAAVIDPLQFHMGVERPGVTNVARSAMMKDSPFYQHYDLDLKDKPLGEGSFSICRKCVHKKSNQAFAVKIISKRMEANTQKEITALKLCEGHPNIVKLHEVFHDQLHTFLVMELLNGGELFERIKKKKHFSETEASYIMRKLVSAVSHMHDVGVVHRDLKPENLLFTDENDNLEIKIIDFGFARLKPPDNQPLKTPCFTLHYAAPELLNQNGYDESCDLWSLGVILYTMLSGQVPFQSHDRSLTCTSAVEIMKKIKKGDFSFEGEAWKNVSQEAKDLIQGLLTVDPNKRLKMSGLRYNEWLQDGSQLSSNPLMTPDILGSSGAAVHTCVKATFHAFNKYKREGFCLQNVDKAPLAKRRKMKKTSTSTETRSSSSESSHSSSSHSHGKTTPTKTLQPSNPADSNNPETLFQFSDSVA
# Chain of Megakaryocyte-associated tyrosine-protein kinase (P42679 whole entry): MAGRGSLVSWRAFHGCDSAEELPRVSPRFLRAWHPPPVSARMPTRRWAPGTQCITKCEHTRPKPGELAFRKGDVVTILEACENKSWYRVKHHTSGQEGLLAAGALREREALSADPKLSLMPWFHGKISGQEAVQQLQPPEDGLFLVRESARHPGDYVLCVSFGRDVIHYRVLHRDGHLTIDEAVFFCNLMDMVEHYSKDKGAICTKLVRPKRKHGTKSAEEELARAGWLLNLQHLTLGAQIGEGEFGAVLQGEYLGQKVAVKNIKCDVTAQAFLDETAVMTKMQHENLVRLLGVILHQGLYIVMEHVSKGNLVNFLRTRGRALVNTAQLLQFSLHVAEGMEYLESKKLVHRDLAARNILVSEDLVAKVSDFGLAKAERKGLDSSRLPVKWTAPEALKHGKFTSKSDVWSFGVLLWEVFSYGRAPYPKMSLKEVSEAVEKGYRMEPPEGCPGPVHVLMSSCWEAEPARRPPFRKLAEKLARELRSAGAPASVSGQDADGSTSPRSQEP
# Chain of Serine/threonine-protein kinase Nek4 (P51957 whole entry): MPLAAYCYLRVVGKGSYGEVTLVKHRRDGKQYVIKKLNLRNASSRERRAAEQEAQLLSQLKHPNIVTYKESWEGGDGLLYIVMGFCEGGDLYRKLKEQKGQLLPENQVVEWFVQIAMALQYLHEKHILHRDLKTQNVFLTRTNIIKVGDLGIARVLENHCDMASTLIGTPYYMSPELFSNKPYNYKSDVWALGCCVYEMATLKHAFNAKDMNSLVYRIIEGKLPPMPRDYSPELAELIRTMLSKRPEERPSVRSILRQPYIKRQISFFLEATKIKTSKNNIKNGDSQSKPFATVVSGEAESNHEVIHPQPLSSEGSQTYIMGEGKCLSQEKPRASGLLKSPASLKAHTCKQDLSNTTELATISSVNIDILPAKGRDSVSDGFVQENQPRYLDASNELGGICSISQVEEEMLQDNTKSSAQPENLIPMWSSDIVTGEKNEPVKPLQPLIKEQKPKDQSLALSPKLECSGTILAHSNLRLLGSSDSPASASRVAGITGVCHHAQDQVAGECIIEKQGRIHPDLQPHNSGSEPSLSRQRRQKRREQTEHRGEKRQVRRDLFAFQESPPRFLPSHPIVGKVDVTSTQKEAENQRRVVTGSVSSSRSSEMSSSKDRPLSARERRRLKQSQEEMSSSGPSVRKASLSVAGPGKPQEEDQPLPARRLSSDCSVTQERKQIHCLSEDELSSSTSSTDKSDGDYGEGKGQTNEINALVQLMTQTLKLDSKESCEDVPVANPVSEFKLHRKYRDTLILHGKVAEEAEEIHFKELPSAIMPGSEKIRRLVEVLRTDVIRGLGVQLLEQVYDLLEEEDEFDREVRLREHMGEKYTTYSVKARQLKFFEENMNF
# Chain of Tyrosine-protein kinase Fyn (P06241 whole entry): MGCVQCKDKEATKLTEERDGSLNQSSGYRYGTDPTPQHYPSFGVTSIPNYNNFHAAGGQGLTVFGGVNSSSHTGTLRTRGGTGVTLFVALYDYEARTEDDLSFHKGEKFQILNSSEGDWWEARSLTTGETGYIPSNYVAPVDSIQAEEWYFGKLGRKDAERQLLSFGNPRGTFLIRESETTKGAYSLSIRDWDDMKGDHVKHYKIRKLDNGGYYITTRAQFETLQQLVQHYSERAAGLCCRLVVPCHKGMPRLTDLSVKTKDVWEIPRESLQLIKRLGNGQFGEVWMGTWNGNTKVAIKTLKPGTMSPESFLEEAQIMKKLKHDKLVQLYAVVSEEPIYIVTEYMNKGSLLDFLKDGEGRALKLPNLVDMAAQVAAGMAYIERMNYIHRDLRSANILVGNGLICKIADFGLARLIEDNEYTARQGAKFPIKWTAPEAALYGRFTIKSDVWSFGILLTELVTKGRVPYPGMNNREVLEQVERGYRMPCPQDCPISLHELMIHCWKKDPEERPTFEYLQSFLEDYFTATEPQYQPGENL
# Chain of Serine/threonine-protein kinase D2 (Q9BZL6 whole entry): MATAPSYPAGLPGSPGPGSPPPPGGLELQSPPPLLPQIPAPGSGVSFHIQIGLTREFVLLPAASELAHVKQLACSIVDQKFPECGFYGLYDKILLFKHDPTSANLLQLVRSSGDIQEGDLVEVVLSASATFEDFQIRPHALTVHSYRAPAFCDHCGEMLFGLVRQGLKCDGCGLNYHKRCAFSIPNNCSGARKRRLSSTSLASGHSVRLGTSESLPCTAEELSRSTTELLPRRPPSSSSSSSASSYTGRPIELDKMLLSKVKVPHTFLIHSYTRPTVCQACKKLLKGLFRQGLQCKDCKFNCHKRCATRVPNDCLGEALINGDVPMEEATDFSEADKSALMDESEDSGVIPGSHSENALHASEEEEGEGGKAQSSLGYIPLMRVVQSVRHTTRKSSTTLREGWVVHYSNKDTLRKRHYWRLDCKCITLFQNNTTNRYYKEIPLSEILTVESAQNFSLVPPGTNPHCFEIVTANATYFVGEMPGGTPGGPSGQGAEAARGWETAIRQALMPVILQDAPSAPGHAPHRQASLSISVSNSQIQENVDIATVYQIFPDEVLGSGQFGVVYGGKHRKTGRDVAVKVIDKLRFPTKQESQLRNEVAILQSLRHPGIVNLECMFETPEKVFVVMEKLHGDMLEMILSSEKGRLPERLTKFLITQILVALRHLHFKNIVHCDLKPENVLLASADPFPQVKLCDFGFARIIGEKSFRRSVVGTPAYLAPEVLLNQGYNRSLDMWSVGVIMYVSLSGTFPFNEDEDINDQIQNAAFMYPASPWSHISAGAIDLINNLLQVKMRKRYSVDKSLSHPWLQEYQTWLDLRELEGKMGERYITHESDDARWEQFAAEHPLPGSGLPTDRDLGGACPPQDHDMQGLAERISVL
# Chain of Eukaryotic translation initiation factor 4E (P63073 whole entry, the tested form may be a part): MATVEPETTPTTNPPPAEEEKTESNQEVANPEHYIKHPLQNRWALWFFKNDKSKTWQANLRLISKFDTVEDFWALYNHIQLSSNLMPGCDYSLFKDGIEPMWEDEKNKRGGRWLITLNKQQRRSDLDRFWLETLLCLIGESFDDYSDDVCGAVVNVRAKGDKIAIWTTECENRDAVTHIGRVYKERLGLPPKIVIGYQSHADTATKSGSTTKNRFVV
structure (smiles),measurement,setting,value
Cc1n[nH]c2ccc(-c3cncc(OCC(N)Cc4cccc(Cl)c4)c3)cc12 (stereo not given),Ki,[1],> 2000 nM (inactive)
same,Ki,[2],12.6 nM (active)
same,pKi,[2],7.9
same,Ki,[3],> 10000 nM (inactive)
same,Ki,[4],> 2510 nM (inactive)
same,Ki,[5],79.4 nM (active)
same,Ki,[6],39.8 nM (active)
same,Ki,[7],251 nM (active)
same,Ki,[8],15.8 nM (active)
same,Ki,[9],> 794 nM (inactive)
same,Ki,[10],6310 nM (active)
same,Ki,[11],100 nM (active)
same,Ki,[12],> 3980 nM (inactive)
same,Ki,[13],5.01 nM (active)
same,Ki,[14],15.8 nM (active)
same,Ki,[15],631 nM (active)
same,Ki,[16],> 1260 nM (inactive)
same,Ki,[17],> 5010 nM (inactive)
same,Ki,[18],10 nM (active)
O=C(O)C1Nc2c(O)cc(Cl)c([N+](=O)[O-])c2C2C=CCC12 (stereo not given),IC50,[19],5210 nM (active)
O=C1N=C(NS(=O)(=O)Cc2ccccc2)S/C1=C1\C(=O)Nc2ccccc21,IC50,[20],16700 nM (active)
CC(=O)NC1C(=O)N(CCN2CCOCC2)c2ccc(F)cc21 (stereo not given),IC50,Hexokinase HKDC1,14900 nM (active)
O=C(CCc1ccccc1)NNc1cc(N2CCCCC2)nc(N2CCCCC2)n1,IC50,[21],> 99000 nM (inactive)
Oc1ccc(N=Nc2c(O)ccc3ccccc23)cc1,AC50,[22],5610 nM (active)
same,IC50,Exodeoxyribonuclease V,> 118000 nM (inactive)

# Source: ChEMBL document CHEMBL1201862, “PubChem BioAssay data set” (2004)
